From US9289428B2, “Conveniently injectable or implantable sustained-release antioxidant formulations for therapies of ocular maladies or cancer” (RAMSCOR, INC., priority 2011, dated 2016)
Where two headings read alike, the source gives them in different places.

Experiments:
[1] = Concentration of active agent in the rabbit eye after injection of a sustained release formulation into the vitreous; assay type: in vivo
Procedure: A 10 μL unit dose of either formulation 1 or formulation 2 was injected into the eyes of two rabbits, and the concentration of timolol or dexamethasone (dex) remaining in the eye tested at 7 days and 14 days thereafter. A 50 μL unit dose was injected into the vitreous of two rabbit's eyes, and the concentrations of active agent detected 7 days thereafter and averaged. Timalol was detected at 8.93 μg/mL; Dex was detected at 2.82 μg/mL.
A formulation consisting of 20% timolol maleate:10% Reservatrol:70% (1:1 ATEC:EA) was prepared by mixing. A unit dose of 50 μL was injected into the vitreous of two rabbit eyes, and Reservatrol was detected at 0.64 μg/mL (average) 7 days thereafter.

B16 melanoma tumors = assay: Mouse B16 melanoma tumor model, single intratumoral implantation of sustained release antioxidant formulation; assay type: in vivo, C57 mouse
Description: A mouse model was used to study the in vivo effect of sustained release antioxidant formulations on melanoma tumors. Mouse B16 melanoma Cell lines were obtained from NCI-Frederick, Md. C57 Mice were obtained from Simonsen Laboratories in Gilroy, Calif. Anesthesia was Ketamine/Xylazine/Acepromacine 1:1:0.03 mixture. […] cell suspension and 1×1 mm tumor pieces were preserved in 90% Fetal Bovine Serum and 10% DMSO in liquid nitrogen. Tumor was also maintained by in vivo serial subcutaneous passage.
Mice of either sex, weighing 16-18 grams, were anesthetized with the ketamine mixture. Subcutaneous implantation of the B16 suspension (100 ul of 2×10^6/ml) or solid tumor piece were performed in the back or nape of the mouse. Tumors were treated when tumor reached the average size of 6×6 mm in diameter and weighed approximately 0.6-0.8 grams in 7-10 days.
Treatment consisted of a single intratumoral implantation of semi-solid drug formulations. Each formulation consisted of 2 mg of active pharmaceutical ingredient (API): either Resveratrol, Astaxanthin, or Melatonin; in either tocopherol acetate (EA), benzyl benzoate (BB), or acetyltriethyl citrate (ATEC) excipients (all Sigma Chemical). The ratio of API and excipient was 80:20 by weight.

C[C@@H]1C[C@H]2[C@@H]3CCC4=CC(=O)C=C[C@]4(C)[C@@]3(F)[C@@H](O)C[C@]2(C)[C@@]1(O)C(=O)CO [Dex, dexamethasone]
concentration at 7 days ([1]; rabbit, in vivo): 2820 ng/mL

Oc1ccc(/C=C/c2cc(O)cc(O)c2)cc1 [Reservatrol, 3,5,4′-trihydroxy-trans-stilbene]
concentration at 7 days ([1]; other: intravitreal injection, 50 μL unit dose of 20% timolol maleate:10% Reservatrol:70% (1:1 ATEC:EA) injected into vitreous of two rabbit eyes, 7 days thereafter, average, read-out: concentration of Reservatrol detected in the vitreous): 640 ng/mL

CC(C)(C)NC[C@H](O)COc1nsnc1N1CCOCC1 [Timalol, timolol]
concentration at 7 days ([1]; rabbit, in vivo): 8930 ng/mL

CC1=C(/C=C/C(C)=C/C=C/C(C)=C/C=C/C=C(C)/C=C/C=C(C)/C=C/C2=C(C)C(=O)[C@@H](O)CC2(C)C)C(C)(C)C[C@H](O)C1=O [astaxanthin]
time to complete clinical resolution of the tumor (B16 melanoma tumors; after the single treatment): 5-7 weeks
time to peeling of overlying skin surface and beginning ulceration (B16 melanoma tumors; after the single treatment): about one
tumor growth after treatment (B16 melanoma tumors; after the single treatment): stopped growing immediately
condition and body weight of the animals (B16 melanoma tumors; until termination of the experiment on day 90): remained active and continued to gain weight
